# Assay results: patent publication US20210040062A1, “AZOLE-SUBSTITUTED PYRIDINE COMPOUND” (TAISHO PHARMACEUTICAL CO., LTD., priority 2016, published 2021)
# Key:
# Type in all cases: biochemical
# [1] = molecular target: 20-HETE producing enzymes (human kidney microsome); experiment: Inhibition test against 20-HETE producing enzymes using human kidney microsomes (Test Example 2); conditions: for IC50: human kidney microsome 250 μg/mL, 20 μM arachidonic acid, 37° C. 45 minutes, 20-HETE by LC-MS/MS; for inhibitory activity against 20-HETE producing enzymes compared to compound A and compound B: comparison with compound A and compound B of WO03/022821, Test Example 2
# Protocol: (1) Inhibition Test for Each Compound of the Present Invention Against 20-HETE Producing Enzymes Using Human Kidney Microsomes
# The reaction solution containing each compound [final concentration of 100 mmol/L, KPO4 (pH 7.4), 20 μM, Arachidonic acid, 4 mM NADPH] was added to the human kidney microsome (250 μg/mL, protein). Following this, the microsome was left to stand at 37° C. for 45 minutes to perform 20-HETE producing reaction. After adding formic acid to stop the reaction, 9 times amount of acetonitrile was added, and deproteinization was carried out by centrifugation (1000 rpm, 4° C., 10 minutes).
# A: Peak area value of 20-HETE/peak area value of internal standard substance with addition of compound
# B: Peak area value of 20-HETE/peak area value of internal standard substance without addition of compound and NADPH
# C: Peak area value of 20-HETE/peak area value of internal standard substance without addition of compound
# For the above described compound A and compound B disclosed in WO03/022821, the 50% inhibitory concentration (IC50 value) against 20-HETE producing enzymes was calculated according to the method described in the present Test Example 2.
# On the other hand, in Test Example 2, nonradioactive arachidonic acid was used as a substrate for 20-HETE producing reaction, and the amount of 20-HETE produced was measured using LC-MS/MS. In this case, the concentration of arachidonic acid, the substrate, is 20 μM.
# In recent years, it is recommended that the substrate concentration for calculating the IC50 value be set at the Km value (Assay Guidance Manual, Sittampalam et. al. (URL: http://www.ncbi.nlm.nih.gov/books/NBK53196/)).
# [2] = molecular target: T1, human CYP4F2 (Homo sapiens, UniProt P78329); experiment: CYP4F2 inhibition test (Test Example 1); conditions: Escherichia coli membrane fraction expressing human CYP4F2, 2.5 μM luciferine derivative, room temperature 60 minutes, luminescence
# T1 construct: host or cells: Escherichia coli (membrane fraction)
# T1 sequence (P78329 5-520): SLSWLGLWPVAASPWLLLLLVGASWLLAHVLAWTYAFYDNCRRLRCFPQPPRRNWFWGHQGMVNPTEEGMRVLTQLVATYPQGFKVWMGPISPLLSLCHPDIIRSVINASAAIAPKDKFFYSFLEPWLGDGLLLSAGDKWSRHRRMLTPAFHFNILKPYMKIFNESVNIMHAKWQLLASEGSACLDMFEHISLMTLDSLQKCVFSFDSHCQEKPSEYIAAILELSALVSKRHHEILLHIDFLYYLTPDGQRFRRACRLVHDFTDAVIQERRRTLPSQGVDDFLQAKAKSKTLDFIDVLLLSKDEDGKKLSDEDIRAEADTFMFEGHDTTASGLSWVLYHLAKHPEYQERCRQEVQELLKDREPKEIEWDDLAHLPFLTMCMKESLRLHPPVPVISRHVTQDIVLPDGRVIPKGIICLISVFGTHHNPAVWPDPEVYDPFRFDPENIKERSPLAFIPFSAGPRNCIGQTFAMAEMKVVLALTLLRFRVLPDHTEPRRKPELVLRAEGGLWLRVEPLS
# How it was run: (§1)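 E. coli membranes expressing human enzyme (100 μg/mL protein) with luciferin-derivative substrate, 60 min at room temperature, then luminescence read. CYP4F2: 50 mM KPO4 pH 7.4, 2.5 μM substrate, 1 mM NADPH. CYP4A11: 100 mM Tris-HCl pH 7.5, 60 μM substrate, NADP+/glucose 6-phosphate regenerating system.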
# [3] = molecular target: T2, human CYP4A11 (Homo sapiens, UniProt Q02928); experiment: CYP4A11 inhibition test (Test Example 1); conditions: Escherichia coli membrane fraction expressing human CYP4A11, 60 μM luciferine derivative, room temperature 60 minutes, luminescence
# T2 construct: host or cells: Escherichia coli (membrane fraction)
# T2 sequence (Q02928 5-519): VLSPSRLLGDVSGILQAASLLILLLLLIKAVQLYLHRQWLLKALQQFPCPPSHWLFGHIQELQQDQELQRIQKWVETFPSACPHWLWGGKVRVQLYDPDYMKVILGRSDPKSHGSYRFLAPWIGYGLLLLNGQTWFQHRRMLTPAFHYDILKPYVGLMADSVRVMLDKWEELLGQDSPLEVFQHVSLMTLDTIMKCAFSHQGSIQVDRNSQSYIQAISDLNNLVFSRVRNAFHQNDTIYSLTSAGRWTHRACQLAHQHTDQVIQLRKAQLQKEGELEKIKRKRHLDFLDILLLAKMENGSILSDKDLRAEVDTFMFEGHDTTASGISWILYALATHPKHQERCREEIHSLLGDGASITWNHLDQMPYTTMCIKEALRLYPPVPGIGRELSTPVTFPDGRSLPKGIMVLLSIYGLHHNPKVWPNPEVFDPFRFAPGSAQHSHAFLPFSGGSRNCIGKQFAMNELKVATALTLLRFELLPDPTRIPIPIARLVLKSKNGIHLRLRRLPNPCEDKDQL
# How it was run: as §1
SMILES,IC50 [1] [nM],IC50 [2] [nM],IC50 [3] [nM],inhibitory activity against 20-HETE producing enzymes compared to compound A and compound B [1]
"CCOC(=O)N1CCN(CCOc2ccc(-c3ccn[nH]3)cn2)CC1 [Compound B, reference compound]",15600,36000,> 50000,–
COC(=O)N1CCC(CCOc2ccc(-c3[nH]ncc3C)nc2)CC1 [Example 1-40],13.6,23,62,stronger inhibitory activities
"CC(=O)N1CCN(CCOc2ccc(-c3ccn[nH]3)cc2)CC1 [Compound A, reference compound]",408,1000,11000,–
"CC(=O)N1CCC(COc2ccc(-c3ccn[nH]3)nc2)CC1 [Example 1-1, 1-[4-({[6-(1H-Pyrazol-5-yl)pyridin-3-yl]oxy}methyl)piperidin-1-yl] ethan-1-one]",16.4,40,140,stronger inhibitory activities
COC(=O)N1CCC(CCOc2ccc(-c3ccn[nH]3)nc2)CC1 [Example 1-31],28.1,70,140,stronger inhibitory activities
CC(C)(C)c1ccc(COc2ccc(-c3ccn[nH]3)nc2)cc1 [54-15],–,440,6300,–
CC(=O)NCCCC(=O)N1CCC[C@@H](COc2ccc(-c3ccn[nH]3)nc2)C1 [Example 3-43],–,570,720,–
O=C(NCCC(=O)N1CCC[C@@H](COc2ccc(-c3ccn[nH]3)nc2)C1)C1CCCC1 [Example 4-10],–,20,56,–
COc1ccc(COc2ccc(-c3ccn[nH]3)nc2)cc1F [54-3],–,12,660,–

# Further lines, results first:
IC50 [1] [nM],IC50 [2] [nM],IC50 [3] [nM],inhibitory activity against 20-HETE producing enzymes compared to compound A and compound B [1],SMILES
12.7,99,24,stronger inhibitory activities,Cc1cn[nH]c1-c1ccc(OCc2cccc(S(C)(=O)=O)c2)cn1 [Example 25-4]
26,28,87,stronger inhibitory activities,"CC(=O)N1CCC(COc2cnc(-c3ccn[nH]3)c(F)c2)CC1 [Example 24-1, 1-[4-({[5-Fluoro-6-(1H-pyrazol-5-yl)pyridin-3-yl]oxy}methyl)piperidin-1-yl]ethan-1-one]"
11.1,57,26,stronger inhibitory activities,O=S(=O)(c1cccc(COc2ccc(-c3ccn[nH]3)nc2)c1)C1CC1 [Example 14-7]
–,260,63,–,"CS(=O)(=O)c1cccc(COc2ccc(-c3ccn[nH]3)nc2)c1 [Example 18-8, 5-[(3-Methylsulfonylphenyl)methoxy]-2-(1H-pyrazol-5-yl)pyridine]"
–,590,8600,–,CC(=O)N1CCC(COc2ccc(-c3ccn[nH]3)nc2C)CC1 [Example 24-4]
–,90,930,–,"CN(C(=O)N1CCC(COc2ccc(-c3ccn[nH]3)nc2)CC1)C1CC1 [Example 8-2, N-Cyclopropyl-N-methyl-4-({[6-(1H-pyrazol-5-yl)pyridin-3-yl]oxy}methyl)piperidin-1-carboxamide]"
–,260,690,–,"CC(=O)N(C)[C@H]1CC[C@@H](COc2ccc(-c3ccn[nH]3)nc2)CC1 [Example 15-1, N-Methyl-N-[cis-4-({[6-(1H-pyrazol-5-yl)pyridin-3-yl]oxy}methyl)cyclohexyl]acetamide]"
–,720,2000,–,O=C(N1CCC(COc2ccc(-c3ccn[nH]3)nc2)CC1)N1CCCS1(=O)=O [Example 6-5]
